In one experiment the test system is TOV-21G xenografts. Briefly: TOV-21G xenograft, sActRIIB and 5-FU chemotherapy combination. Format: in vivo, human. The note with it: nude mice; sActRIIB 10 mg/kg SC 1x/week, 5-FU 50 mg/kg IP 3 cycles, alone or together. The method, then: TOV-21G xenograft. 5×10^6 TOV-21G ovarian cancer cells were implanted subcutaneously into individual female athymic nu/nu mice (Harlan). Treatment was initiated at day 12 after tumor implantation, when the average tumor volume reached approximately 150 mm^3. The mice received PBS, sActRIIB (30 mg/kg, SC, 1×/week) or activin-A antibody (30 mg/kg, SC, 2×/week). In a separate chemotherapy combination experiment, the mice were treated with PBS, sActRIIB (10 mg/kg, SC, 1×/week), 5-FU (50 mg/kg, IP, 3 cycles, 4 daily injections per cycle) or sActRIIB and 5-FU combination at the same doses above. For all xenograft experiments, the tumor sizes were measured longitudinally by using an electronic caliper. Immediately prior to the 1st dose, the tumor-bearing mice were randomized to ensure even distribution in tumor sizes across different groups. Tumor volumes (mm^3) were calculated as tumor length (mm)×tumor width (mm)×tumor height (mm). Tumor weights were determined by necropsy.

Experiment [1] in a line: Activin-A antibody and doxorubicin in TOV-21G tumor-bearing nude mice: body weight and muscle mass. Format: in vivo, mouse. The text has this: (§1) The objective of this study was to examine the effects of pharmacological administration of activin-A antibody, doxorubicin, and activin-A antibody plus doxorubicin, on body weight, tumor growth and muscle mass in nude mice implanted with TOV-21G ovarian xenograft tumors. The activin-A antibody used was the same as described in the Materials section above. Eight-week-old female Athymic nude mice were each injected with 2.2×10^6 TOV-21G cells subcutaneously (SC) into the left site of the lower flank of the mice. On day 12 post tumor implantation, the mice were divided into 4 groups by body weight and tumor size and then treated with vehicle, activin-A antibody, doxorubicin, or the combination of activin-A antibody and doxorubicin. In addition, a group of non-tumor bearing mice was used as normal control and received PBS.
(§2) Mice were weighed weekly. Body weight data were recorded longitudinally. Tumor size was measured longitudinally by using an electronic caliper (Fred V. Fowler Company, Inc.). […] At the end of the study, mice in all groups were subjected to terminal necropsy and lean carcass weight (excluding skin, adipose tissue, internal organs, and head) was determined by using standard anatomical dissection procedures. […] All results were expressed as the mean±SEM. […]

The nature of experiment [2]: sActRIIB and doxorubicin in TOV-21G tumor-bearing nude mice: body weight and muscle mass. Format: in vivo, mouse. The method, then: (§3) The objective of the present study was to examine the effect of pharmacological administration of sActRIIB, doxorubicin (dox), and sActRIIB plus doxorubicin, respectively, on body weight, tumor growth and muscle mass in nude mice implanted with TOV-21G ovarian xenograft tumors. Eight-week-old female Athymic nude mice were SC injected with 0.2 mL of 5×10^6 TOV-21G cells into the left site of the lower flank of the mice. After 10 days of tumor implantation, the mice were divided into 4 groups by body weight and tumor size and then treated with vehicle, sActRIIB, doxorubicin or the combination of sActRIIB and doxorubicin. In addition, a group of non-tumor bearing mice was used as normal control and received PBS.
(§4) Mice were weighed weekly. Body weight data were recorded longitudinally. Tumor size was measured longitudinally by using an electronic caliper. The following formula was used to calculate actual tumor volume (Tomayko M and Reynolds C, 1989): (Volume of a rectangular solid tumor: Tumor volume (mm^3)=length (mm)×width (mm)×height (mm) of tumor). At the end of the study, mice in all groups were subjected to terminal necropsy and lean carcass weight (excluding skin, adipose tissue, internal organs, and head) was determined by using standard anatomical dissection procedures. […] All results were expressed as the mean±SEM (standard error of the mean). […]

The test system of experiment [3] is TOV-21G ovarian xenograft tumors. Briefly: sActRIIB and doxorubicin in TOV-21G tumor-bearing nude mice: tumor size and weight. In kind it is in vivo, human. The note with it: sActRIIB 10 mg/kg SC 1x/week, DOX 2 mg/kg IP 1x/week; 4-week study. The procedure:
as §3, §4

The test system is the same in experiment [4]. Briefly: Activin-A antibody and doxorubicin in TOV-21G tumor-bearing nude mice: tumor size and weight. Format: in vivo, human. The note with it: activin-A antibody 20 mg/kg SC 1x/week, DOX 4 mg/kg IP 1x/week; vs vehicle-treated.
Text: as §1, §2

As to `O=c1[nH]cc(F)c(=O)[nH]1` [Antibody 5-FU, 5-Fluorouracil, reference compound], the “rate of tumor growth” value with TOV-21G xenografts was “decreased the rate of tumor growth significantly”.
Consider `COc1cccc2c1C(=O)c1c(O)c3c(c(O)c1C2=O)C[C@@](O)(C(=O)CO)C[C@@H]3O[C@H]1C[C@H](N)[C@H](O)[C@H](C)O1` [Doxorubicin, doxorubicin, reference compound], for which the body weight entry in experiment [1] (TOV-21G tumor-bearing nude mice, activin-A antibody 20 mg/kg SC 1x/week, DOX 4 mg/kg IP 1x/week) was “further decline (non-statistically significant) in body weight”; in experiment [2] (TOV-21G tumor-bearing nude mice, sActRIIB 10 mg/kg SC 1x/week, DOX 2 mg/kg IP 1x/week), “further decline (non-statistically significant) in body weight”. For the same compound, the “lean carcass weight and calf muscle mass” value is “no effect on the loss of lean carcass weight and calf muscle mass” in experiment [1] (TOV-21G-implanted nude mice, necropsy at end of 5-week experiment); “no effect on the loss of lean carcass weight and calf muscle mass” in experiment [2] (TOV-21G-implanted nude mice, necropsy at end of 4-week experiment). Moreover, the “tumor size and tumor weight vs vehicle-treated TOV-21G group” value in experiment [3] is “significantly reduced tumor size and tumor weight”. For the same compound, the “tumor size and tumor weight (day 47) / tumor growth” value in experiment [4] is given as “capable of inhibiting TOV-21G tumor growth”.

Values taken from US12383572B2, “Administration of an anti-activin-a compound to a subject” (AMGEN INC., priority 2013, dated 2025).
